# In US20160033533A1, “2-HYDROXYGLUTARATE AS A BIOMARKER FOR CHRONIC HYPOXIA” (MEMORIAL SLOAN KETTERING CANCER CENTER, priority 2011, published 2016):
# Test system: SF188 cells
# Experiment: Viability of glutamine-starved hypoxic SF188 cells (trypan blue dye exclusion)
# Type: cell-based, human
# Conditions: 0.5% O2, 48 h, glutamine-deficient medium supplemented with 7 mM dimethyl α-ketoglutarate
# Protocol: In FIG. 2(A), SF188 cells were cultured for 24 h in complete medium equilibrated with either 21% O2 (Normoxia) or 0.5% O2 (Hypoxia). Culture medium was then removed from cells and analyzed for glutamine levels which were compared to the glutamine levels in fresh medium. Data are the mean±SEM of 3 independent experiments. […] Cells were cultured in complete medium equilibrated with 0.5% O2 for 24 h, followed by an additional 48 h at 0.5% O2 in either complete medium (+Gln), glutamine-deficient medium (−Gln), or glutamine-deficient medium supplemented with 7 mM dimethyl α-ketoglutarate (−Gln+αKG). All medium was pre-conditioned in 0.5% O2. Cell viability was determined by trypan blue dye exclusion. Data are the mean and range from 2 independent experiments. FIG. 2(C) depicts a model of the pathways for cit+4 and cit+5 production from [U-^13C]glutamine (glutamine+5). […] Cells were cultured for 24 h as in (A), followed by 4 h of culture in glutamine-deficient medium supplemented with 4 mM [U-^13C]glutamine. ^13C enrichment in cellular citrate was quantitated with GC-MS. […]
# SF188 and RCC4 cells were cultured in Dulbecco's Modified Eagle's Medium (DMEM; Invitrogen 11965), 10% fetal bovine serum (FBS; Gemini Biosystems), 100 units/ml Penicillin, 100 ug/ml Streptomycin, 25 mM glucose, and 6 mM L-glutamine. […] Viability was determined by trypan blue exclusion. […]
compound,measurement,value
COC(=O)CCC(=O)C(=O)OC [dimethyl α-ketoglutarate],cell viability upon glutamine withdrawal,rescued the defect in cell viability
